Laboratory results as given in patent US11738031B2, “Compositions and methods for preventing or treating muscle conditions” (The Board of Trustees of the Leland Stanford Junior …, priority 2017, dated 2023).

What was measured:
[1] = tested on: tibialis anterior (TA) muscle; experiment: Cardiotoxin muscle injury, TA histology (PAX7, myofiber cross-sectional area); type: in vivo, mouse; details: for effect on endogenous MuSCs in the absence of injury: no tissue damage; for increase in endogenous PAX7-expressing MuSCs / distribution of myofiber cross-sectional area: young mice; for increase in endogenous PAX7-expressing MuSCs: bolus three days after injury, fourteen days post injury; for distribution of myofiber cross-sectional area: day 14 post-cardiotoxin injury
Description: Muscle injury: We used an injury model entailing intramuscular injection of 10 μl of notexin (10 μg ml^−1; Latoxan) or cardiotoxin (10 μM; Latoxan) into the TA muscle. For cryoinjury, an incision was made in the skin overlying the TA muscle and a copper probe, chilled in liquid nitrogen, was applied to the TA muscle for three 10 s intervals, allowing the muscle to thaw between each application of the cryoprobe. When indicated, 48 hr after injury either 16,16-Dimethyl Prostaglandin E2 (dmPGE2) (13 nmol, Tocris, catalog #4027) or vehicle control (PBS) was injected into the TA muscle. The contralateral TA was used as an internal control. We collected tissues 14 days post-injury for analysis.
Tissue histology: We collected and prepared recipient TA muscle tissues for histology as previously described^5,6. We incubated transverse sections with anti-LAMININ (Millipore, clone A5, catalog #05-206, 1:200), and anti-PAX7 (Santa Cruz Biotechnology, catalog #sc-81648, 1:50) primary antibodies and then with AlexaFluor secondary Antibodies (Jackson ImmunoResearch Laboratories, 1:200). We counterstained nuclei with DAPI (Invitrogen). We acquired images with an AxioPlan2 epifluorescent microscope (Carl Zeiss Microimaging) with Plan NeoFluar 10×/0.30 NA or 20×/0.75 NA objectives (Carl Zeiss) and an ORCA-ER digital camera (Hamamatsu Photonics) controlled by the SlideBook (3i) software. The images were cropped using Adobe Photoshop with consistent contrast adjustments across all images from the same experiment. The image composites were generated using Adobe Illustrator. We analyzed the number of PAX7 positive cells using the MetaMorph Image Analysis software (Molecular Devices), and the fiber area using the Baxter Algorithms for Myofiber Analysis that identified the fibers and segmented the fibers in the image to analyze the area of each fiber. For PAX7 quantification we examined serial sections spanning a depth of at least 2 mm of the TA. For fiber area at least 10 fields of LAMININ-stained myofiber cross-sections encompassing over 400 myofibers were captured for each mouse as above. Data analyses were blinded. The researchers performing the imaging acquisition and scoring were unaware of treatment condition given to sample groups analyzed.
We used an injury model entailing intramuscular injection of 10 μl of notexin (10 μg ml^−1; Latoxan, catalog #L8104) or cardiotoxin (10 μM; Latoxan, catalog #L8102) into the Tibialis anterior (TA) muscle. For cryoinjury, an incision was made in the skin overlying the TA muscle and a copper probe, chilled in liquid nitrogen, was applied to the TA muscle for three 10 s intervals, allowing the muscle to thaw between each application of the cryoprobe. When indicated, 48 hr after injury either 16,16-Dimethyl Prostaglandin E2 (dmPGE2) (13 nmol, Tocris, catalog #4027), Indomethacin (35 μg, Sigma, catalog #17378) or vehicle control (PBS) was injected into the TA muscle. The contralateral TA was used as an internal control, except for the force measurement experiments where each mouse had both legs injured with the same condition and independent mice were used for each condition.
We collected and prepared recipient TA muscle tissues for histology as previously described (26, 27). For mouse injury assays we incubated transverse sections with Rabbit polyclonal anti-PGE2 (abcam, Catalog #ab2318, 1:100) Rat polyclonal anti-Laminin (Clone A5) (EMD Millipore, Catalog #05-206, 1:200), Mouse monoclonal anti-Pax7 (Santa Cruz, Catalog #sc-81648, 1:50), AlexaFluor 647-conjugated wheat germ agglutinin (WGA) antibody (W32466, Thermo Fisher Scientific), Rabbit polyclonal anti-GFP (A11122, Thermo Fisher Scientific, 1:500) and Mouse monoclonal anti-Embryonic Myosin Heavy Chain (DSHB, Catalog #F1.652, 1:10) primary antibodies and then with AlexaFluor secondary Antibodies (Jackson ImmunoResearch Laboratories, 1:500). We counterstained nuclei with DAPI (Invitrogen). […]

[2] = tested on: MuSCs transplanted into tibialis anterior (TA) muscles of recipient mice; experiment: Muscle stem cell transplantation, engraftment by bioluminescence imaging (BLI); type: in vivo, mouse; details: for BLI signal of engrafted MuSCs after secondary (notexin) injury: notexin re-injury one month after transplant

Structure (SMILES) | muscle mass of treated TA ([1]; day 14 post-injury) | effect on endogenous MuSCs in the absence of injury [1] | increase in endogenous PAX7-expressing MuSCs [1] [%] | distribution of myofiber cross-sectional area [1] | regenerative capacity of MuSCs coinjected with PGE2, by BLI ([2]; 250 GFP/Luc MuSCs into injured TAs of NSG mice (Example 3)) | regenerative capacity of cultured PGE2-treated young MuSCs by BLI ([2]; acute 1-day PGE2 in culture, 250 cells transplanted on day 7 into NOD-SCID mice) | BLI signal of engrafted MuSCs after secondary (notexin) injury [2] | myofiber sizes ([1]; aged mice, fourteen days post-injury) | increase in the number of endogenous MuSCs ([1]; aged mice, single dmPGE2 injection, fourteen days post-injury) [%] | engraftment of aged MuSCs coinjected with dmPGE2 ([2]; aged MuSCs, 250 cells, 13 nmol dmPGE2) | engraftment of young MuSCs coinjected with dmPGE2 ([2]; freshly isolated MuSCs, 250 cells, 13 nmol dmPGE2)
CCCCC[C@H](O)/C=C/[C@H]1[C@H](O)CC(=O)[C@@H]1C/C=C\CCCC(=O)O [PGE2, prostaglandin E2] | did not increase | no difference from vehicle-injected controls | 65±7 | striking shift in the distribution of myofibers from smaller toward larger sizes | nearly two orders of magnitude | enhanced by an order of magnitude | spike in BLI signals |  |  |  | 
CCCCC(C)(C)[C@H](O)/C=C/[C@H]1[C@H](O)CC(=O)[C@@H]1C/C=C\CCCC(=O)O [dmPGE2, 16,16-dimethyl prostaglandin E2] |  | no effect | 60±15 | shifted toward larger sizes |  |  | further increased in response to notexin injury | concomitant increase in myofiber sizes | 24±2 | significantly enhanced engraftment | significantly enhanced engraftment
